{
  "source": "patent US20220347093A1",
  "about": "“PHARMACEUTICAL COMPOSITION” (University of Fukui, priority 2019, published 2022)",
  "key": {"[1]": {"system": "nasal polyps specimen surgically obtained from a patient with eosinophilic sinusitis", "assay": "Ex vivo incubation of nasal polyps specimens, weight change before/after about 24 h", "parameters": "species or system human", "conditions": "37° C.; for (A) − (B) (mg), nasal polyps weight decrease / After incubation (mg) (B), nasal polyps specimen weight: single case; for nasal polyps weight change before and after incubation (paired t-test): 6 cases", "description": "(§1) A heparinoid (organic sulfate group 25.8 to 37.3% w/w, D-glucuronic acid 19.0 to 24.0% w/w, Maruho Co., Ltd.) dried under reduced pressure was dissolved in saline to prepare heparinoid solutions (0.3, 30 and 3,000 μg/mL). A nasal polyps specimen was surgically obtained from a patient with eosinophilic sinusitis, cut into pieces of about 5 mm squares, wiped off the moisture and measured the weight. Each specimen was transferred to a 12-well plate. The specimen in the plate was incubated with 1 mL of saline or heparinoid solutions at 37° C. for about 24 hours. Then, after wiping off the moisture in the incubated specimen taken from the plate, the weight of the specimen was measured. The difference between specimen weights before and after incubation was used as an index of a nasal polyps reduction effect. The saline group and heparinoid solution groups (different in concentration) of FIG. 1 each consisted of 6 cases.\nThe reduction effects of heparinoid solutions (0.003, 0.03, 0.3 and 30 μg/mL) on nasal polyps were evaluated in the same method as in Example 1. The saline group and heparinoid solution groups (different in concentration) of FIG. 2 each consisted of 6 cases.\nA PPS solution (0.003 μg/mL) was prepared and the reduction effect on nasal polyps was evaluated in the same method as in Example 1. PPS used herein was sodium pentosan polysulfate (weight average molecular weight 4,000 to 6,500, sulfur content 13.0 to 20.0% w/w, glucuronic acid content 2.5 to 4.0% w/w) manufactured by Molclone Labs. The saline group and PPS solution group of FIG. 3 each consisted of 6 cases.\nThe following 11 types of polysaccharide solutions (polysaccharides except glucomannan: 300 μg/mL; glucomannan 30 μg/mL) were prepared and the reduction effect on nasal polyps was evaluated in the same method as in Example 1. The saline groups and polysaccharide solution groups (different in concentration) of Tables 1 to 4 each consisted of a single case. • Chondroitin (chondroitin sodium, weight average molecular weight 42,351, sulfate group content 2.6%, manufactured by Maruho Co., Ltd.) • Low-molecular chondroitin sulfate (low-molecular sodium chondroitin sulfate, weight average molecular weight 11,500, sulfate group content 8.9%, manufactured by Maruho Co., Ltd.) • Chondroitin sulfate A (sodium chondroitin sulfate A, manufactured by PG Research) • Dermatan sulfate (sodium dermatan sulfate, manufactured by Tokyo Chemical Industry Co., Ltd.) • Chondroitin sulfate C (sodium chondroitin sulfate C, manufactured by PG Research) • Glucomannan (Propol A, manufactured by Shimizu Chemical Corporation) • Dextran sulfate (sodium dextran sulfate 500,000, manufactured by FUJIFILM Wako Pure Chemical Corporation) • Keratan sulfate (sodium keratan sulfate, manufactured by PG Research) • Inulin (manufactured by Tokyo Chemical Industry Co., Ltd.) • Heparan sulfate (manufactured by Toronto Research Chemicals, Inc.) • Xylo-oligosaccharide (xylo-hexaose, manufactured by Megazyme)"}, "[2]": {"system": "nasal polyps specimen surgically obtained from a patient with non-eosinophilic sinusitis", "assay": "Ex vivo incubation of nasal polyps specimens, weight change before/after about 24 h", "parameters": "species or system human", "conditions": "single case; for (A) − (B) (mg), nasal polyps weight decrease / After incubation (mg) (B), nasal polyps specimen weight: 37° C., about 24 hours; for nasal polyps weight change before and after incubation, in words: 0.03, 0.3, 30 and 300 μg/mL, individually", "description": "as §1\nIn the same method as in Example 1, heparinoid solutions and PPS solutions (0.03, 0.3, 30 and 300 μg/mL, respectively) were prepared and the reduction effect on nasal polyps specimen surgically obtained from a patient with non-eosinophilic sinusitis was evaluated. The heparinoid and PPS were also the same as those used in Example 1 and Example 3, respectively. The saline groups, heparinoid solution group and PPS solution groups of Table 5 each consisted of a single case."}, "[3]": {"system": "rat nasal mucosal inflammation models", "conditions": "Non Patent Literature 4; cited from earlier work"}, "[4]": {"system": "nasal polyps surgically obtained from patients with eosinophilic sinusitis", "conditions": "Non Patent Literature 5; cited from earlier work"}},
  "data": [
    {"compound": "chondroitin sodium", "values": [
      {"measurement": "(A) − (B) (mg), nasal polyps weight decrease", "setting": "[1]; 300 μg/mL in saline", "result": 32.8, "unit": "mg"},
      {"measurement": "After incubation (mg) (B), nasal polyps specimen weight", "setting": "[1]; 300 μg/mL in saline", "result": 122.0, "unit": "mg"}
    ]},
    {"compound": "sodium dermatan sulfate", "values": [
      {"measurement": "(A) − (B) (mg), nasal polyps weight decrease", "setting": "[1]; 300 μg/mL in saline", "result": 13.1, "unit": "mg"},
      {"measurement": "After incubation (mg) (B), nasal polyps specimen weight", "setting": "[1]; 300 μg/mL in saline", "result": 118.5, "unit": "mg"}
    ]},
    {"compound": "sodium dextran sulfate 500,000", "values": [
      {"measurement": "(A) − (B) (mg), nasal polyps weight decrease", "setting": "[1]; 300 μg/mL in saline", "result": 22.0, "unit": "mg"},
      {"measurement": "After incubation (mg) (B), nasal polyps specimen weight", "setting": "[1]; 300 μg/mL in saline", "result": 120.0, "unit": "mg"}
    ]},
    {"compound": "sodium pentosan polysulfate [PPS]", "values": [
      {"measurement": "nasal polyps weight change before and after incubation (paired t-test)", "setting": "[1]; 0.003 μg/mL", "result": "decreased significantly"},
      {"measurement": "(A) − (B) (mg), nasal polyps weight decrease", "setting": "[2]; 0.03 μg/mL", "result": 19.0, "unit": "mg"},
      {"measurement": "After incubation (mg) (B), nasal polyps specimen weight", "setting": "[2]; 0.03 μg/mL", "result": 214.0, "unit": "mg"},
      {"measurement": "(A) − (B) (mg), nasal polyps weight decrease", "setting": "[2]; 0.3 μg/mL", "result": 48.0, "unit": "mg"},
      {"measurement": "After incubation (mg) (B), nasal polyps specimen weight", "setting": "[2]; 0.3 μg/mL", "result": 225.0, "unit": "mg"},
      {"measurement": "(A) − (B) (mg), nasal polyps weight decrease", "setting": "[2]; 30 μg/mL", "result": 13.0, "unit": "mg"},
      {"measurement": "After incubation (mg) (B), nasal polyps specimen weight", "setting": "[2]; 30 μg/mL", "result": 207.0, "unit": "mg"},
      {"measurement": "(A) − (B) (mg), nasal polyps weight decrease", "setting": "[2]; 300 μg/mL", "result": 10.0, "unit": "mg"},
      {"measurement": "After incubation (mg) (B), nasal polyps specimen weight", "setting": "[2]; 300 μg/mL", "result": 115.0, "unit": "mg"},
      {"measurement": "nasal polyps weight change before and after incubation, in words", "setting": "[2]", "result": "remarkably decreased"}
    ]},
    {"compound": "sodium chondroitin sulfate A", "values": [
      {"measurement": "(A) − (B) (mg), nasal polyps weight decrease", "setting": "[1]; 300 μg/mL in saline", "result": 38.0, "unit": "mg"},
      {"measurement": "After incubation (mg) (B), nasal polyps specimen weight", "setting": "[1]; 300 μg/mL in saline", "result": 68.0, "unit": "mg"}
    ]},
    {"compound": "Inulin", "values": [
      {"measurement": "(A) − (B) (mg), nasal polyps weight decrease", "setting": "[1]; 300 μg/mL in saline", "result": 46.1, "unit": "mg"},
      {"measurement": "After incubation (mg) (B), nasal polyps specimen weight", "setting": "[1]; 300 μg/mL in saline", "result": 85.3, "unit": "mg"}
    ]},
    {"compound": "low-molecular sodium chondroitin sulfate [Low-molecular chondroitin sulfate]", "values": [
      {"measurement": "(A) − (B) (mg), nasal polyps weight decrease", "setting": "[1]; 300 μg/mL in saline", "result": 25.0, "unit": "mg"},
      {"measurement": "After incubation (mg) (B), nasal polyps specimen weight", "setting": "[1]; 300 μg/mL in saline", "result": 116.0, "unit": "mg"}
    ]},
    {"compound": "sodium chondroitin sulfate C", "values": [
      {"measurement": "(A) − (B) (mg), nasal polyps weight decrease", "setting": "[1]; 300 μg/mL in saline", "result": 44.0, "unit": "mg"},
      {"measurement": "After incubation (mg) (B), nasal polyps specimen weight", "setting": "[1]; 300 μg/mL in saline", "result": 80.0, "unit": "mg"}
    ]},
    {"compound": "Heparan sulfate", "values": [
      {"measurement": "(A) − (B) (mg), nasal polyps weight decrease", "setting": "[1]; 300 μg/mL in saline", "result": 25.5, "unit": "mg"},
      {"measurement": "After incubation (mg) (B), nasal polyps specimen weight", "setting": "[1]; 300 μg/mL in saline", "result": 103.0, "unit": "mg"}
    ]},
    {"compound": "OC1OC[C@@H](O[C@@H]2OC[C@@H](O[C@@H]3OC[C@@H](O[C@@H]4OC[C@@H](O[C@@H]5OC[C@@H](O[C@@H]6OC[C@@H](O)[C@H](O)[C@H]6O)[C@H](O)[C@H]5O)[C@H](O)[C@H]4O)[C@H](O)[C@H]3O)[C@H](O)[C@H]2O)[C@H](O)[C@H]1O", "note": "(stereo partly shown) [Xylo-oligosaccharide, xylo-hexaose]", "values": [
      {"measurement": "(A) − (B) (mg), nasal polyps weight decrease", "setting": "[1]; 300 μg/mL in saline", "result": 17.9, "unit": "mg"},
      {"measurement": "After incubation (mg) (B), nasal polyps specimen weight", "setting": "[1]; 300 μg/mL in saline", "result": 110.4, "unit": "mg"}
    ]},
    {"compound": "heparin", "values": [
      {"measurement": "neutrophil infiltration", "setting": "[3]", "result": "significantly suppress"},
      {"measurement": "production of mucus", "setting": "[3]", "result": "significantly suppress"},
      {"measurement": "reduction effect on nasal polyps", "setting": "[4]", "result": "did not show a reduction effect"}
    ]},
    {"compound": "Glucomannan", "values": [
      {"measurement": "(A) − (B) (mg), nasal polyps weight decrease", "setting": "[1]; 30 μg/mL in saline", "result": 19.0, "unit": "mg"},
      {"measurement": "After incubation (mg) (B), nasal polyps specimen weight", "setting": "[1]; 30 μg/mL in saline", "result": 81.0, "unit": "mg"}
    ]},
    {"compound": "sodium keratan sulfate", "values": [
      {"measurement": "(A) − (B) (mg), nasal polyps weight decrease", "setting": "[1]; 300 μg/mL in saline", "result": 18.3, "unit": "mg"},
      {"measurement": "After incubation (mg) (B), nasal polyps specimen weight", "setting": "[1]; 300 μg/mL in saline", "result": 147.3, "unit": "mg"}
    ]},
    {"compound": "heparinoid", "values": [
      {"measurement": "nasal polyps weight change before and after incubation (paired t-test)", "setting": "[1]; 0.003 μg/mL", "result": "decreased significantly"},
      {"measurement": "nasal polyps weight change before and after incubation (paired t-test)", "setting": "[1]; 0.03 μg/mL", "result": "decreased significantly"},
      {"measurement": "nasal polyps weight change before and after incubation (paired t-test)", "setting": "[1]; 0.3 μg/mL", "result": "decreased significantly"},
      {"measurement": "nasal polyps weight change before and after incubation (paired t-test)", "setting": "[1]; 30 μg/mL", "result": "decreased significantly"},
      {"measurement": "nasal polyps weight change before and after incubation (paired t-test)", "setting": "[1]; 3,000 μg/mL", "result": "decreased significantly"},
      {"measurement": "(A) − (B) (mg), nasal polyps weight decrease", "setting": "[2]; 0.03 μg/mL", "result": 35.0, "unit": "mg"},
      {"measurement": "After incubation (mg) (B), nasal polyps specimen weight", "setting": "[2]; 0.03 μg/mL", "result": 276.0, "unit": "mg"},
      {"measurement": "(A) − (B) (mg), nasal polyps weight decrease", "setting": "[2]; 0.3 μg/mL", "result": 28.0, "unit": "mg"},
      {"measurement": "After incubation (mg) (B), nasal polyps specimen weight", "setting": "[2]; 0.3 μg/mL", "result": 181.0, "unit": "mg"},
      {"measurement": "(A) − (B) (mg), nasal polyps weight decrease", "setting": "[2]; 30 μg/mL", "result": 66.0, "unit": "mg"},
      {"measurement": "After incubation (mg) (B), nasal polyps specimen weight", "setting": "[2]; 30 μg/mL", "result": 169.0, "unit": "mg"},
      {"measurement": "(A) − (B) (mg), nasal polyps weight decrease", "setting": "[2]; 300 μg/mL", "result": 30.0, "unit": "mg"},
      {"measurement": "After incubation (mg) (B), nasal polyps specimen weight", "setting": "[2]; 300 μg/mL", "result": 246.0, "unit": "mg"},
      {"measurement": "nasal polyps weight change before and after incubation, in words", "setting": "[2]", "result": "remarkably decreased"}
    ]}
  ]
}
